Series [1] is described as follows: Acute lethal toxicity to marine copepods (ISO 14669). The note with it: Acartia tonsa (marine copepod), in vivo, other: aquatic phase (waterborne exposure), Water Accommodated Fraction, nominal concentrations. Here is the method: A series of test were carried out to assess the environmental impact of monoethanoamine. A stock solution of 98-99% pure monoethanolamine was sent to be tested. The solution was diluted where necessary.
Determination of Acute Lethal Toxicity to Marine Copepods (Copepoda; Crustacea) (ISO 14669 (1999) Water Quality)
This study was commissioned to determine the aquatic phase toxicity of monoethanolamine to the marine copepod Acartia tonsa. The A. tonsa toxicity LC50 test was conducted in accordance with the study plan except for the following deviation and interferences but met all other relevant validity criteria. In the definitive test the temperature of the dilution water was below acceptable limits by a maximum of 0.7° C., the pH was below acceptable limits by a maximum of 0.01 units. These deviations were not expected to have an impact on the test as there was no control mortalities.

For series [2], the system named is Corophium volutator. Put plainly: Sediment bioassay using an amphipod (OSPARCOM 2006 Part A). The series is classed as in vivo. The note with it: sediment phase, via dried sediment, nominal concentrations. How it is done:
OSPARCOM Guidelines (2006) Part A. A Sediment Bioassay Using an Amphipod Corophium sp
This study was commissioned to determine the sediment phase toxicity of the composition of monoethanolamine to the intertidal amphipod Corophium volutator. […] The result is based on nominal concentrations and was calculated by Linear Interpolation within the CETIS suite of statistical analysis.

Series [3] deals with Skeletonema sp. As to the kind of experiment: Marine algal growth inhibition test (ISO 10253). The series is classed as cell-based. The note with it: 72 h, WAFs, nominal concentrations, read-out: 72 h EC(r)50. The source says:
ISO 10253 (2016) Water Quality—Marine Algal Growth Inhibition Test with Skeletonema Sp. This study was commissioned to determine the aquatic phase toxicity of the composition of monoethanolamine to the marine unicellular algae Skeletonema sp. […] It is the results from this test that has been reported.

Series [4] is described as follows: Aerobic degradability in seawater (OECD 306). How it is done: This study was commissioned to determine the aerobic degradability of the composition of monoethanolamine in seawater. […] The ThODNO3 value was determined from the chemical formula of the compound tested.
The OECD 306 guideline states the test material can be considered to be inhibitory to bacteria (at the concentration used) if the BOD of the mixture of reference and test materials is less than the sum of the BOD of the separate solutions of the two substances.

The test system of series [5] is Cyprinodon variegatus. As to the kind of experiment: Marine fish 96 h limit test (OSPAR). The note with it: 96 h exposure at 199.7 mg/l (Water Accommodated Fraction). The series is classed as in vivo. How it is done:
This study was commissioned to determine the aquatic (96 h limit test) toxicity of the composition of monoethanolamine to the marine fish Cyprinodon variegatus.
There were no interferences in this test. Test conditions of exposure were within formal and informal limits of acceptability except for the exception noted below. There were ten fish used in both the test and control tanks, with no control mortality observed.
The test concentration was derived from the test material EC/LC50 value between the most sensitive acute toxicity test species Skeletonema sp. and A. tonsa.

In brackets after ≈: the same amount, converted by molar mass. Read-outs that look alike come from different tables or passages of the source.

Take `NCCO` [monoethanolamine]: the median lethal concentration (LC50) at 48 h was determined as 434 µg/mL (≈ 7.1 mM) in series [1] (48 h LC50, definitive test, seawater) and 550 µg/mL (≈ 9 mM) in series [1] (48 h LC50, range-finding test). In series [2], the “10 day LC50” value is 6,660 mg/kg. Further, the EC50 in series [3] (definitive test) is 200 µg/mL (≈ 3.27 mM); in series [3] (range-finding test), 509 µg/mL (≈ 8.33 mM). Moreover, the biodegradation in series [4] stood at 71%. In series [4] (in 28 days), the “percentage inhibition of bacteria” value worked out at 12%. In addition, in series [5], the mortality result was “no mortalities”.

In the case of `O=C([O-])c1ccccc1.[Na+]` [sodium benzoate, reference compound], the “degradation of reference material” value in series [4] (first 14 days, seawater) was “more than 60%”.

Usually LC50 stands for the concentration that kills 50% of the test population. The low end stands for greater toxicity, the high end for lower toxicity.
